Assay in all cases: inhibition of tumour cell growth, NCI panel, 48 h
Assay [1] concerns CAKI-1 renal.
The test system of assay [2] is PC-3 prostate.
Assay [3] concerns HS 578T breast.
The subject of assay [4] is OVCAR-4 ovarian.
For assay [5], the system named is A549 NSCLC.
The test system of assay [6] is NCI-H460 lung.
In assay [7] the test system is HCT-15 colon.

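Values below derive from 48-hour exposures of cells grown in 96-well plates, with endpoints linearly interpolated between the two concentrations bracketing the appropriate inhibition level. GI50: concentration for 50% inhibition of growth. At the TGI there is no net growth.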 Some results are limits rather than exact numbers.

As for `CC(=O)c1ccc2c3c1O[C@H]1c4[nH]c5ccccc5c4C[C@@]4(O)[C@@H](C2)N(CC2CC2)CC[C@]314`, the TGI is 37.4 µM in assay [1]; 21.7 µM in assay [2]; 15.2 µM in assay [3]; 39.9 µM in assay [4]; 21.3 µM in assay [5]; 17.7 µM in assay [6]. In assay [7], this compound had a TGI of 25.3 µM.

`COc1ccc(C2=NNC(c3cc4cc(Br)ccc4nc3Cl)C2)cc1` (centres undefined): the TGI in assay [1] is greater than 25 µM; in assay [2], greater than 25 µM; in assay [3], 24.2 µM; in assay [4] it was greater than 25 µM; in assay [6], greater than 25 µM.

For the compound `O=c1c2cc(I)ccc2nc(SCc2nnco2)n1Cc1ccccc1`, the TGI in assay [1], in assay [2], in assay [3], in assay [4], in assay [5] and in assay [6] was greater than 100 µM in each case. The compound further registered a TGI in assay [7] greater than 100 µM.

As for `CC1=CC(=O)/C(=C/n2c(=S)[nH]c3cc(C)ccc32)C(=O)O1`, the TGI in assay [1], in assay [2], in assay [3], in assay [4], in assay [5] and in assay [6] was greater than 100 µM each time. The TGI in assay [7] was greater than 100 µM.

As for `C[C@]12CC[C@H](O)CC1=CC[C@@H]1[C@@H]2CC[C@]2(C)C(=O)/C(=C/c3ccc([N+](=O)[O-])cc3)C[C@@H]12`, the TGI is greater than 100 µM in assay [1]; 31 µM in assay [2]; 29.5 µM in assay [3]; 32.3 µM in assay [4]; 29.8 µM in assay [5]; greater than 100 µM in assay [6]. The compound further came in with a TGI in assay [7] greater than 100 µM.

`CCOC(=O)C(NC(=O)CC)(Nc1ccc(S(=O)(=O)Nc2ccc(OC)nn2)cc1)C(F)(F)F` (centres undefined): the TGI in assay [1], in assay [2], in assay [3], in assay [4], in assay [5] and in assay [6] was greater than 100 µM in each case. Also, the TGI in assay [7] is greater than 100 µM.

In the case of `CCC(=O)N1C(=O)C(CC)(CC)C(=O)N1C(=O)CC`, the TGI in assay [1], in assay [2], in assay [3], in assay [4], in assay [5] and in assay [6] was greater than 100 µM throughout. In assay [7], this compound gave a TGI greater than 100 µM.

Turning to `CCN(CC)C1Oc2cc3c(cc2C(c2cccc(OC)c2O)C1C)OCO3` (centres undefined), the TGI is 27 µM in assay [1]; greater than 35.8 µM in assay [2]; 18.7 µM in assay [3]; greater than 100 µM in assay [4]; 24.6 µM in assay [5]; 21.9 µM in assay [6]. Also, in assay [7], the TGI is greater than 53.2 µM.

On to `OC1(c2ccc(Cl)cc2)c2c(c3ccccc3c3ccccc23)C2=NCCN21` (centres undefined), for which the TGI turned out to be 68.8 µM in assay [1]; 49.6 µM in assay [2]; 18.6 µM in assay [3]; 11 µM in assay [4]; 59 µM in assay [5]; 41.4 µM in assay [6]. The TGI in assay [7] is greater than 100 µM.

Take `CO[C@]12CC(=O)C3(C(C[C@H]4CC5CC[C@H]6C[C@@H](OC(C)=O)CC[C@]6(OC(C)=O)C5C[C@@]43C)C1)C1C[C@H]3[C@@H]4CC[C@H]5C[C@@H](OC(C)=O)CC[C@]5(OC(C)=O)[C@H]4CC[C@]3(C)C12` (some centres undefined): the TGI in assay [1], in assay [2], in assay [3], in assay [4], in assay [5] and in assay [6] was greater than 100 µM throughout. Also, the TGI in assay [7] was greater than 100 µM.

As to `Cc1c2oc3c(C)cc(F)c(C(=O)NC4C(=O)NC(C(C)C)C(=O)N5CCCC5C(=O)N(C)CC(=O)N(C)C(C(C)C)C(=O)OC4C)c3nc-2c(C(=O)NC2C(=O)NC(C(C)C)C(=O)N3CCCC3C(=O)N(C)CC(=O)N(C)C(C(C)C)C(=O)OC2C)c(N)c1=O` (centres undefined), the TGI in assay [1] was 3.73 µM; in assay [2] it was 4.68 µM; in assay [3], greater than 100 µM; in assay [4], greater than 100 µM; in assay [6], 13.5 µM; in assay [7], greater than 100 µM. In addition, the figures for the GI50 in assay [3], in assay [4] and in assay [7] were 0.5 µM, 0.559 µM and 0.42 µM, respectively.

Turning to `COc1cc(C2c3cc(OC)c(OC)c(O)c3C(=O)C3CCC(=O)N32)cc(OC)c1OC` (centres undefined), the TGI in assay [1], in assay [2], in assay [3], in assay [4], in assay [5] and in assay [6] was greater than 100 µM in each case. Further, in assay [7], the TGI was greater than 100 µM.

Take `Cc1c2cccc-2c(OCCOC(=O)n2ccnc2)cc2c1[nH]c1ccccc12`: the TGI in assay [1] is 17.8 µM; in assay [2], 3.48 µM; in assay [3], greater than 100 µM; in assay [4], 5.63 µM; in assay [5], 11 µM; in assay [6], 18.1 µM. Besides, the TGI in assay [7] is 5.95 µM.

As to `CN(C)C=NCC(O)c1ccccc1` (centres undefined), the TGI in assay [1], in assay [2], in assay [3], in assay [4], in assay [5] and in assay [6] was greater than 100 µM each time. This compound showed a TGI in assay [7] greater than 100 µM.

With `O=C(N[C@H]1CCC[C@H]1C(=O)Nc1ccc(C(F)(F)F)cc1)OCc1ccccc1`, the TGI in assay [1], in assay [2], in assay [3], in assay [4], in assay [5] and in assay [6] was greater than 100 µM in each case. The TGI in assay [7] is greater than 100 µM.

Consider `COc1ccc(N2N=NN(C(C)C)/C2=C(/Cl)c2nnnn2-c2ccc(OC)cc2)cc1`, for which the TGI in assay [1] was found to be 3.16 µM; in assay [2], 28.3 µM; in assay [3], 52.6 µM; in assay [4], 11.6 µM; in assay [5], 33.6 µM; in assay [6] it was 36.6 µM. In assay [7], this compound registered a TGI of 31.4 µM.

As to `COc1cc(/C=C/C(=N\NC(=S)NN)c2sc(NNC(C)=O)nc2C)ccc1O`, the TGI in assay [1], in assay [2], in assay [3], in assay [4], in assay [5] and in assay [6] was greater than 100 µM each time. Besides, the TGI in assay [7] is greater than 100 µM.

Values taken from PubChem BioAssay (NCI).
